Reference: ChEMBL document CHEMBL1201862, “PubChem BioAssay data set” (2004)
The source made the active and inactive calls.

Tests used:
[1] = molecular target: T1, Replicative DNA helicase DnaB (Mycobacterium tuberculosis, UniProt P9WMR3); experiment: DnaB intein splicing inhibitors, dose response, biochemical, cell-free fluorescence (AID 449749); format: functional
T1 sequence (P9WMR3 whole entry): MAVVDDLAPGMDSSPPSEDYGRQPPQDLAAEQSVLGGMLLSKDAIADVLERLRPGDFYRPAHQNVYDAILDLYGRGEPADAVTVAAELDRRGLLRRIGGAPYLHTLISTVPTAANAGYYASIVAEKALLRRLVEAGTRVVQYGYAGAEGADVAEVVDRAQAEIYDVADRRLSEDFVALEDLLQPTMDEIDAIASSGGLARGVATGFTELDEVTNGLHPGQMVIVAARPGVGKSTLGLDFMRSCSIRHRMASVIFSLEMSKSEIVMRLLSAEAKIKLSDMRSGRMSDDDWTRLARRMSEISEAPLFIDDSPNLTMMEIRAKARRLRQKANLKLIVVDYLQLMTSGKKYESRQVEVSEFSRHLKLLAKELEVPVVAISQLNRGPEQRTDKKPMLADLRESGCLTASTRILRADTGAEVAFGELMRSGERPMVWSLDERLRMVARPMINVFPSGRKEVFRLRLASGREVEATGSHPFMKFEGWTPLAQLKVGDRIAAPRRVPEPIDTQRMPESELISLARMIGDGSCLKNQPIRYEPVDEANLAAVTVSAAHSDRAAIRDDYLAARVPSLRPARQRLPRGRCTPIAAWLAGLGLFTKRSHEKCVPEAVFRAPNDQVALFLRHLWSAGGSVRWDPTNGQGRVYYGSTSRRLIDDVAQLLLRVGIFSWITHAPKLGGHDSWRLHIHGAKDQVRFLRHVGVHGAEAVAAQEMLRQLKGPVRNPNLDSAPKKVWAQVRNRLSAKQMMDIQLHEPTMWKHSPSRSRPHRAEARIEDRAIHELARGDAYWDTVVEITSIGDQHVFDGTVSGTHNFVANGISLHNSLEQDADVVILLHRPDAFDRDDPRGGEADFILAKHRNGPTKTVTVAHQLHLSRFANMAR

Protein RecA = molecular target: T2, Protein RecA (Mycobacterium tuberculosis, UniProt P9WHJ3); experiment: Fluorescence Cell-Free Homogeneous Dose Retest to Identify Inhibitors of RecA-Intein Splicing Activity. [Related pubchem assays (depositor defined):AID2097, AID2223, AID489010, AID492950]; format: functional
T2 sequence (P9WHJ3 whole entry): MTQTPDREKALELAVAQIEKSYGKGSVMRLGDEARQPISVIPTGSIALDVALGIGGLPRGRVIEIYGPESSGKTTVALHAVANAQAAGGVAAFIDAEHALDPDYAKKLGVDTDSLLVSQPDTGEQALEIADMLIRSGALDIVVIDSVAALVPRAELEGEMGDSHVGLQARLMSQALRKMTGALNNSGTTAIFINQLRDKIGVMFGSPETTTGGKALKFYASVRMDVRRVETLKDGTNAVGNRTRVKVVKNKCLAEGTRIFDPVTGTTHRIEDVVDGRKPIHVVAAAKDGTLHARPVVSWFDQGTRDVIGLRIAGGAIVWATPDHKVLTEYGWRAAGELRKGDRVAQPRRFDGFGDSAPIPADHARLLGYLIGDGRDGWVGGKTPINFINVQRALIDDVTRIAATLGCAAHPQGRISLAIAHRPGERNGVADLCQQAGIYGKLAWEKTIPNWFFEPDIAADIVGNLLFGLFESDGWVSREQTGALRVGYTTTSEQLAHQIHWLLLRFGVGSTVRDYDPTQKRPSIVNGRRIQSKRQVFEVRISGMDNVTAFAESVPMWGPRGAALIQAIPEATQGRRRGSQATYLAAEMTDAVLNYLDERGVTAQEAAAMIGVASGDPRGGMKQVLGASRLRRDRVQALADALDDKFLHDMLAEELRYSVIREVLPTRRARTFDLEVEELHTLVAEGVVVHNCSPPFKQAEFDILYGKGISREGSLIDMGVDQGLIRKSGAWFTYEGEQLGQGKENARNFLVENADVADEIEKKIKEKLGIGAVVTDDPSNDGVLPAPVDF

Cytochrome P450 3A4 = Cytochrome P450 3A4 (Homo sapiens, UniProt P08684);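 further: CYP3A4 tested as one member of a cytochrome P450 panel screen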
Sequence of Cytochrome P450 3A4 (P08684 whole entry): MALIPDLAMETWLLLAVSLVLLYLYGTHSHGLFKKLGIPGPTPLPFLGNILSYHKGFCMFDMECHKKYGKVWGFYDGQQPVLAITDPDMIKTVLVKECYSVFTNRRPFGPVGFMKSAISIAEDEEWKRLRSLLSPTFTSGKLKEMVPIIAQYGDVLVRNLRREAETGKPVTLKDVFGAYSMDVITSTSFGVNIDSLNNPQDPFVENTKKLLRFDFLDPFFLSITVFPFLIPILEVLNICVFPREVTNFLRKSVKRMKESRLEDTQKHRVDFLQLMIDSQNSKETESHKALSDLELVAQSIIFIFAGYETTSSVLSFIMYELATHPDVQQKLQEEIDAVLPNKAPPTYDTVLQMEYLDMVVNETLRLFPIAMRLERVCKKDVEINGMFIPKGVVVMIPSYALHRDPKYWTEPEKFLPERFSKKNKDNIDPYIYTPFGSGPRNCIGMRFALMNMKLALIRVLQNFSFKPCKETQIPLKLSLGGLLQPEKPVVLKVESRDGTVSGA

Cytochrome P450 1A2 = molecular target: T3, Cytochrome P450 1A2 (Homo sapiens, UniProt P05177);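 further: PubChem cytochrome P450 panel assay, CYP1A2 panel member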
T3 sequence (P05177 whole entry): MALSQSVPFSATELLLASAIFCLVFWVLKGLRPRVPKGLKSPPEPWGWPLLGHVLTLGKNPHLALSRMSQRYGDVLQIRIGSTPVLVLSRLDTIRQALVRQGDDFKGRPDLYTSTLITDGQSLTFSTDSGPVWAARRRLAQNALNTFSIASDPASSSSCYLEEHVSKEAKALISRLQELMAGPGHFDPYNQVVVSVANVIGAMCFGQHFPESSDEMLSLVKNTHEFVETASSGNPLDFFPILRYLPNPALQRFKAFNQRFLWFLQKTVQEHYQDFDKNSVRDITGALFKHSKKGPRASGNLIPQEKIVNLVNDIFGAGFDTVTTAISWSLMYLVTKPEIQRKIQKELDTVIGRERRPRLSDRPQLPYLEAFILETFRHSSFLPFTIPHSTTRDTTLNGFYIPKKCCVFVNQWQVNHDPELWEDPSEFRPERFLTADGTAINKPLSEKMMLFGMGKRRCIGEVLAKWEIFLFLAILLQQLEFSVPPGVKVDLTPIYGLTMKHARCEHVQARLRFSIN

Cytochrome P450 2C19 = Cytochrome P450 2C19 (Homo sapiens, UniProt P33261); experiment: Cytochrome panel assay with activity outcomes. Panel member name: p450-cyp2c19 Compounds with AC50 equal or less than 10 uM are considered active; format: functional; conditions: read-out: AC50
Sequence of Cytochrome P450 2C19 (P33261 whole entry): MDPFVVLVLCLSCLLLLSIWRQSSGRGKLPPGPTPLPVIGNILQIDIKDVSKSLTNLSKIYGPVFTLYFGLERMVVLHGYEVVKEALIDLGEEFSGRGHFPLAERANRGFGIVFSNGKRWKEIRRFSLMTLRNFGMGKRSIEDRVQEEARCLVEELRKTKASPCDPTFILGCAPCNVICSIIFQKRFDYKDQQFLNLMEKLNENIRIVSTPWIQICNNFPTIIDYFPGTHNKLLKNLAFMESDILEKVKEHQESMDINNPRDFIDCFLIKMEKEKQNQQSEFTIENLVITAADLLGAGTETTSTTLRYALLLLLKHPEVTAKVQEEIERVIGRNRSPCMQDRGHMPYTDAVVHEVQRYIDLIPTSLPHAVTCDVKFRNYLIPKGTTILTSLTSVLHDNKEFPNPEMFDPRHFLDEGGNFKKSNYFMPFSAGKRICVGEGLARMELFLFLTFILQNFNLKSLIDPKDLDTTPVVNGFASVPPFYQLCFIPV

Cytochrome P450 2D6 = Cytochrome P450 2D6 (Homo sapiens, UniProt P10635);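 further: CYP2D6 member of a cytochrome P450 panel assay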
Sequence of Cytochrome P450 2D6 (P10635 whole entry): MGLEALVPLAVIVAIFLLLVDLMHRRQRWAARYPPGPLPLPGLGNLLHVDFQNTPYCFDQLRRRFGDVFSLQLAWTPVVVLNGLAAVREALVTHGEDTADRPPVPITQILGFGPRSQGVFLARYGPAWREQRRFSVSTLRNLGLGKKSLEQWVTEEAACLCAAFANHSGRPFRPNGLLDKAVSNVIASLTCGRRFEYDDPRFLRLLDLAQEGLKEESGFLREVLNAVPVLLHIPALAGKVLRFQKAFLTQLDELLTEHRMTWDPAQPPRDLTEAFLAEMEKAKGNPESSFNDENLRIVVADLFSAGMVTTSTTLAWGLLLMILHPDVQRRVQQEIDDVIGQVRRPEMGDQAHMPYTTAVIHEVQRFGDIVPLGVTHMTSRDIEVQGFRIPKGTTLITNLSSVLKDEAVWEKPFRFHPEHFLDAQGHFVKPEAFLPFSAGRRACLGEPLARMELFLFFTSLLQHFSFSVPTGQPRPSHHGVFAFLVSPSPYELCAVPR

H4 = experiment: Luminescence Cell-Based Dose Response HTS to Identify Activators of 5'UTR Stem-Loop Driven Prion Protein mRNA Translation in H4 Neuroglioblastoma Cells. [Related pubchem assays: 1829 (Project Summary), 1814 (Primary HTS)]; format: functional; conditions: Homo sapiens
[2] = Luminescence Cell-Based Dose Confirmation HTS to Identify Activators of 5'UTR Stem-Loop Driven Alpha-Synuclein mRNA Translation in H4 Neuroglioblastoma Cells. [Related pubchem assays: 1829 (Project Summary), 1814 (Primary HTS)]; format: functional
[3] = Luminescence Cell-Based Dose Response HTS to Identify Activators of Luciferase Translation or Activity in H4 […] Cells. [Related pubchem assays: 1829 (Project Summary), 1814 (Primary HTS)]; format: functional
[4] = control 3'UTR Renilla luciferase suppression, dose response, counter-screen for Shn3 inhibitor project, cell-based, Clone20-Shn3RL, cherry-picked (AID 624133); format: functional
[5] = HepG2 cell cytotoxicity, dose response, cytotoxicity control for Shn3 inhibitor project, CellTiter-Glo, cherry-picked (AID 624134); format: functional, cell-based
[6] = Shn3 3'UTR reporter inhibitors, dose response, cell-based, Clone20 osteoblasts, firefly luciferase, cherry-picked (AID 624132); format: functional;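 further: firefly luciferase luminescence from reporter carrying the Shn3 3'UTR in osteoblasts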
[7] = molecular target: T4, Heat shock factor protein 1 (Mus musculus, UniProt P38532); experiment: HSF1 potentiators in luciferase reporter cells, confirmation, cell-based, NIH3T3, luminescence, dose retest (AID 435004); format: functional;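 further: stress induced by proteasome inhibitor MG132 added 30 min after compound; luciferase reporter driven by HSF1 response element in NIH3T3 cells; actives raise luminescence as potentiators of the MG132 stress response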
T4 sequence (P38532 whole entry): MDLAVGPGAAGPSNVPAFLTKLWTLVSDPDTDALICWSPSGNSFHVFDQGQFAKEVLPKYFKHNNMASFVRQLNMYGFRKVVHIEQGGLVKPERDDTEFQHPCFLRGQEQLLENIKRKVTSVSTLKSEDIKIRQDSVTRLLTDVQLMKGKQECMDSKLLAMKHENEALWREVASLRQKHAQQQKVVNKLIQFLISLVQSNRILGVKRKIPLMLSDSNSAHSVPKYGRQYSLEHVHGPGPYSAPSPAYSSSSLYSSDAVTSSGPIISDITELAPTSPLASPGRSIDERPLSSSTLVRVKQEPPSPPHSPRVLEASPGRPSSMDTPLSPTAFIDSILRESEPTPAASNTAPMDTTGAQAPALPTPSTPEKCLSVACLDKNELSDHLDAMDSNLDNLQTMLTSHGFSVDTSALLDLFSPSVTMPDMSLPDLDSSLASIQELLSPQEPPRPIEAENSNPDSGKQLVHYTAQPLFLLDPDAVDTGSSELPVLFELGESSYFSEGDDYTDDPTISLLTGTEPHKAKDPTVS

[8] = Luminescence Cell-Based Dose Retest to Confirm Inhibitors of Cancer Stem Cells. [Related pubchem assays (depositor defined):AID2717, AID2721]; format: functional; conditions: Homo sapiens

## CCOC(=O)CSc1nc(=O)c(NCC(=O)OC)n[nH]1
[1]
  AC50: 12 µM (active)
Protein RecA
  EC50: 5.87 µM (active)

## O=C1Oc2ccccc2C(=O)/C1=C\N1C(=O)N/C(=C\c2ccccc2O)C1=O
Cytochrome P450 3A4
  AC50: 3.98 µM (inconclusive)
Cytochrome P450 1A2
  AC50: 0.316 µM (inconclusive)
Cytochrome P450 2C19
  AC50: 6.31 µM (inconclusive)
Cytochrome P450 2D6
  AC50: 3.98 µM (inconclusive)

## CCCS(=O)(=O)N1CCCC(C(=O)NCCCN2CCN(c3ccc(F)cc3)CC2)C1 (centres undefined)
Cytochrome P450 2D6
  AC50: 5.01 µM (inconclusive)

## Cc1ccc(-n2nc(C)c3c2OC(N)=C(C#N)C3c2cccs2)cc1 (centres undefined)
H4
  EC50: > 120 µM (not active)
[2]
  EC50: > 120 µM (not active)
[1]
  AC50: 3.81 µM (active)
[3]
  EC50: 33 µM (active)

## C=CCN(c1ccccc1)S(=O)(=O)c1cccc(C(=O)Nc2nc3ccccc3[nH]2)c1
[4]
  AC50: 27.8 µM (active)
[5]
  AC50: 49.7 µM (active)
[6]
  AC50: 10.1 µM (active)

## CC(C)NCC(O)COCc1ccc(Cl)cc1 (centres undefined)
[7]
  EC50: > 260 µM (inactive)

## NCCCN1CCN(c2ccccc2)CC1
Cytochrome P450 2D6
  AC50: 3.16 µM (inconclusive)

## CC(=O)Nc1ccc(NC(=O)c2ccc(NS(=O)(=O)c3cc(C(C)(C)C)cc(C)c3C)cc2)cc1
[7]
  EC50: 12.5 µM (active)

## COc1ccc(/C=C2/C(=O)N(c3ccccc3)N=C2C)cc1
[1]
  AC50: 4.44 µM (active)
Protein RecA
  EC50: 1.7 µM (active)

## COc1cc(C2(c3ccc(O)c(OC)c3)C(=O)Nc3c(C)cc(Br)cc32)ccc1O
[1]
  AC50: 5.77 µM (active)
Protein RecA
  EC50: 14.4 µM (active)

## CCN(CC(=O)Nc1ccc(NC(C)=O)cc1)C(=O)c1ccccc1CCc1ccccc1
[8]
  AC50: > 195 µM (inactive)

## CC(c1ccccc1)N1CC(C(=O)N2CCN(c3ccc(F)cc3)CC2)CC1=O (centres undefined)
[7]
  EC50: > 260 µM (inactive)

## O=C(CCC1CCCC1)/N=C1\SC2CS(=O)(=O)CC2N1c1ccccc1F (centres undefined)
[7]
  EC50: > 260 µM (inactive)

## Nc1nnnn1/N=C\c1ccc(Cl)c([N+](=O)[O-])c1
[7]
  EC50: > 260 µM (inactive)

## C/C(CC(=O)Nc1ccc(F)cc1F)=N\NC(=O)C(=O)N1CCCCC1
[1]
  AC50: 5 µM (active)
Protein RecA
  EC50: 1.8 µM (active)

## CCCCCC(=O)O[C@]1(C(C)=O)CC[C@H]2[C@@H]3CCC4=CC(=O)CC[C@]4(C)[C@H]3CC[C@@]21C [HYDROXYPROGESTERONE CAPROATE]
[1]
  AC50: 11.9 µM (active)
Protein RecA
  EC50: 4.88 µM (active)
